Usually GI50 stands for the concentration giving 50% growth inhibition. By LC50 is commonly meant the concentration lethal to half of the exposed cells or organisms. Higher therefore signals lower toxicity.

Activity calls are given as the source filed them. No cut-off for these calls is given here.

From ChEMBL document CHEMBL1177848, “Synthesis of novel 6,6a,7,8-tetrahydro-5H-naphtho[1,2-e]pyrimido[4,5-b][1,4]diazepines under microwave irradiation as potential anti-tumor agents” (2010) come the findings set out here.

One experiment concerns SK-MEL-2. Kind of experiment: Growth inhibition of human SK-MEL-2 cells after 48 hrs by sulforhodamine B assay. Format: functional. The settings on record: SK-MEL-2, 48 h. On the technique in general: Sulforhodamine B stains cellular protein and so reports cell mass.
In another experiment the test system is OVCAR-8. Nature of the experiment: Growth inhibition of human OVCAR8 cells after 48 hrs by sulforhodamine B assay. In kind it is functional. The settings on record: OVCAR-8, 48 h.
The subject of the next experiment is HOP-62. Nature of the experiment: Growth inhibition of human HOP62 cells after 48 hrs by sulforhodamine B assay. Format: functional. The settings on record: HOP-62, 48 h.
Another experiment relates to DU-145. Kind of experiment: Growth inhibition of human DU145 cells after 48 hrs by sulforhodamine B assay. The settings on record: DU-145, 48 h. Format: functional.
The subject of another experiment is SF-539. Nature of the experiment: Growth inhibition of human SF539 cells after 48 hrs by sulforhodamine B assay. The settings on record: SF-539, 48 h; for CC50: read-out: LC50 (the source's name). In kind it is functional.
Experiment [1] has as its system SF-268. Nature of the experiment: Growth inhibition of human SF268 cells at 1 uM after 48 hrs by sulforhodamine B assay. In kind it is functional, cell-based.
The next experiment has as its system 786-0. Nature of the experiment: Growth inhibition of human 786-0 cells after 48 hrs by sulforhodamine B assay. The settings on record: 786-0, 48 h. Format: functional.
In the next experiment the test system is HCC 2998. Nature of the experiment: Growth inhibition of human HCC2998 cells after 48 hrs by sulforhodamine B assay. The settings on record: HCC 2998, 48 h. In kind it is functional.
The next experiment concerns NCI-H322M. Kind of experiment: Growth inhibition of human […] cells after 48 hrs by sulforhodamine B assay. Format: functional.
Experiment [2] deals with CCRF-CEM. Kind of experiment: Growth inhibition of human CCRF-CEM cells at 1 uM after 48 hrs by sulforhodamine B assay. In kind it is functional, cell-based.
Another experiment has as its system HT-29. Nature of the experiment: Growth inhibition of human HT-29 cells at 1 uM after 48 hrs by sulforhodamine B assay. Format: functional, cell-based.
For another experiment, the system named is SR. Kind of experiment: Growth inhibition of human SR cells at 1 uM after 48 hrs by sulforhodamine B assay. Format: functional, cell-based.
Another experiment has as its system A549. Nature of the experiment: Growth inhibition of human A549 cells after 48 hrs by sulforhodamine B assay. The settings on record: A549, 48 h. In kind it is functional.
The next experiment deals with Hs-578T. Nature of the experiment: Growth inhibition of human Hs 578T cells after 48 hrs by sulforhodamine B assay. Format: functional.
In a further experiment the test system is SK-MEL-28. Kind of experiment: Growth inhibition of human SK-MEL-28 cells after 48 hrs by sulforhodamine B assay. The settings on record: SK-MEL-28, 48 h. Format: functional.
Experiment [3] is described as follows: Growth inhibition of human SF530 cells after 48 hrs by sulforhodamine B assay. In kind it is functional. The settings on record: SF530, 48 h.
Experiment [4] concerns SF-268. Kind of experiment: Growth inhibition of human SF268 cells after 48 hrs by sulforhodamine B assay. In kind it is functional. The settings on record: SF-268, 48 h.
The test system of experiment [5] is CCRF-CEM. Kind of experiment: Growth inhibition of human CCRF-CEM cells after 48 hrs by sulforhodamine B assay. In kind it is functional.
A further experiment deals with MOLT-4. Nature of the experiment: Growth inhibition of human MOLT4 cells after 48 hrs by sulforhodamine B assay. The settings on record: MOLT-4, 48 h. In kind it is functional.
For a further experiment, the system named is M14. Kind of experiment: Growth inhibition of human M14 cells after 48 hrs by sulforhodamine B assay. The settings on record: M14, 48 h. Format: functional.
The next experiment relates to HL-60. Nature of the experiment: Growth inhibition of human HL-60(TB) cells after 48 hrs by sulforhodamine B assay. Format: functional. The settings on record: HL-60, 48 h.
The next experiment has as its system SNB-75. Kind of experiment: Growth inhibition of human SNB75 cells after 48 hrs by sulforhodamine B assay. Format: functional. The settings on record: SNB-75, 48 h.
For a further experiment, the system named is K562. Nature of the experiment: Growth inhibition of human K562 cells after 48 hrs by sulforhodamine B assay. Format: functional. The settings on record: K562, 48 h.
Where [6] appears, read: read-out: LC50 (the source's name).

For `Nc1nc(N)c2c(n1)NC(c1ccc(F)cc1)C1CCc3ccccc3C1=N2` (centres undefined), the GI50 was determined as 5.73 µM with SK-MEL-2; 8.07 µM in the experiment with OVCAR-8; 6 µM in the experiment with HOP-62; 7.45 µM with DU-145; 1.71 µM in the experiment on SF-539; 6.9 µM in the experiment with 786-0. Moreover, the figures for the GI50 with HCC 2998 and in the experiment on NCI-H322M were 2.44 µM and 9.63 µM, respectively. In the experiment on SK-MEL-2, this molecule gave an LC50 of 50.2 µM. For the same molecule, the results for the LC50 (concentration killing 50% of cells) in the experiment on OVCAR-8, in the experiment with HOP-62 and with HCC 2998 were 80.7 µM, 51.6 µM and 24.3 µM, respectively. Also, the LC50 (50% lethal concentration) in the experiment with DU-145 was found to be 44.5 µM; in the experiment with 786-0 it was 47.8 µM. Besides, the figures for the CC50 in the experiment on SF-539 and with NCI-H322M (setting [6]) were 32 µM and 48 µM, respectively. The “growth inhibition (GI)” value with SF-268 [1], in the experiment on CCRF-CEM [2], in the experiment with HT-29 and with SR was “inactive” in each case.

Take `Nc1nc(N)c2c(n1)NC(c1ccc(Cl)cc1)C1CCc3ccccc3C1=N2` (centres undefined): the GI50 with SF-539 is 6.17 µM. In addition, in the experiment on SF-539, the CC50 was found to be 44.3 µM. Also, the “growth inhibition (GI)” value with SF-268 [1], in the experiment with CCRF-CEM [2], in the experiment with HT-29 and with SR was “inactive” each time.

For `Nc1nc(N)c2c(n1)NC(c1ccccc1)C1CCc3ccccc3C1=N2` (centres undefined), the GI50 was found to be 3.48 µM with SK-MEL-2; 4.71 µM with OVCAR-8; 7.87 µM in the experiment on HOP-62; 4.38 µM in the experiment with DU-145; 7.11 µM in the experiment with A549; 5.85 µM with Hs-578T. For the same molecule, the GI50 amounted to 5.99 µM with 786-0; 7.72 µM in the experiment on SK-MEL-28; 5.81 µM in experiment [3]; 3.82 µM with HCC 2998; 6.96 µM in the experiment with SF-268 [4]; 4.47 µM with CCRF-CEM [5]. Besides, the GI50 with MOLT-4 was found to be 2.7 µM; in the experiment on M14, 4.88 µM; in the experiment on HL-60 it was 2.37 µM; in the experiment on SNB-75, 7.95 µM; in the experiment with K562, 3.42 µM. This molecule also gave an LC50 with SK-MEL-2 of 43.6 µM. Besides, the LC50 (concentration killing 50% of cells) was > 100 µM in the experiment on OVCAR-8, 49.7 µM in the experiment with HOP-62 and 41.2 µM in the experiment with HCC 2998. Further, the LC50 (50% lethal concentration) with DU-145 was found to be 42.1 µM; in the experiment on 786-0 it was 45.7 µM. The CC50 with A549 (setting [6]) is 82.2 µM; in the experiment with Hs-578T (setting [6]), > 100 µM; with SK-MEL-28 (setting [6]) it was 45.1 µM; in [3] (setting [6]), 43.7 µM; in the experiment with SF-268 [4] (setting [6]), 45.7 µM; in the experiment on CCRF-CEM [5] (setting [6]), > 100 µM. The CC50 in the experiment on MOLT-4 (setting [6]) was > 100 µM; in the experiment on M14 (setting [6]), 44.2 µM; in the experiment on HL-60 (setting [6]) it was > 100 µM; in the experiment on SNB-75 (setting [6]), 45.6 µM; in the experiment on K562 (setting [6]) it was > 100 µM. In addition, the “growth inhibition (GI)” value in the experiment on SF-268 [1], in the experiment on CCRF-CEM [2], in the experiment on HT-29 and with SR was “inactive” each time.
